Measured values from patent publication US20060149064A1, “Process to prepare malayamycin derivatives” (priority 2003, published 2006).
Blank lines part the entries; values can stand above or below the compound they belong to.

What was measured:
[1] = tested on: Stagonospora nodorum (LEPTNO); assay: Foliar protectant test against Stagonospora nodorum (LEPTNO) on wheat; format: in vivo; conditions: 100 ppm foliar spray on wheat; inoculated one day after application; banded assessment
Protocol: (§1) This Example illustrates the fungicidal properties of certain of the novel compounds of formula (I). The compounds were tested against a variety of foliar fungal diseases of plants. The technique employed was as follows. Plants were grown on an artificial, cellulose based growing medium. The test compounds were individually diluted in reverse osmosis water to a final concentration of 100 ppm in water (that is, 1 mg of compound in a final volume of 10 ml) immediately before use. TWEEN 20 (at a final concentration of 0.05% by volume) was added with the water to improve retention of the spray deposit. TWEEN is a registered trade mark. The compounds were applied to the foliage of the test plants by spraying the plant to maximum droplet retention. […] After chemical application and inoculation, the plants were incubated under high humidity conditions (except those inoculated with Blumeria graminis f. sp. tritici) and then put into an appropriate environment to allow infection to proceed until the disease was ready for assessment. […] However, each individual disease was assessed after the same time period for all compounds. […] The disease level present (the percentage leaf area covered by actively sporulating disease) was assessed visually. For each treatment, the assessed values for all its replicates were meaned to provide mean disease values. Untreated control plants were assessed in the same manner. […]

[2] = tested on: Blumeria graminis f. sp. tritici (ERYSGT); assay: Foliar protectant test against Blumeria graminis f. sp. tritici (ERYSGT) on wheat; format: in vivo; conditions: 100 ppm foliar spray on wheat; inoculated 6 hours after application; banded assessment
Protocol: as §1

[3] = tested on: Puccinia triticina (PUCCRT); assay: Foliar protectant test against Puccinia triticina (PUCCRT) on wheat; format: in vivo; conditions: 100 ppm foliar spray on wheat; inoculated one day after application; banded assessment
Protocol: as §1

melting point: 158 °C (dec.)
SMILES: CO[C@@H]1CO[C@H]2C(O)[C@H](c3c[nH]c(=O)[nH]c3=O)O[C@@H]2[C@@H]1NC(N)=O (stereo partly shown) [Compound No. 1, malayamycin A]

SMILES: CO[C@H]1CO[C@H]2C(O)[C@H](c3c[nH]c(=O)[nH]c3=O)O[C@@H]2[C@@H]1NC(N)=O (stereo partly drawn) [compound 2, 6-epi-malayamycin A]
PRCO (percentage Disease Reduction from Control) LEPTNO 1 day Protectant [1]: 45
PRCO (percentage Disease Reduction from Control) ERYSGT 6 hour Protectant [2]: 50
PRCO (percentage Disease Reduction from Control) PUCCRT 1 day Protectant [3]: 100

SMILES: NC(=O)N[C@H]1[C@H]2O[C@@H](c3c[nH]c(=O)[nH]c3=O)C(O)[C@@H]2OC[C@H]1O (stereo partly shown) [compound 3, desmethylmalayamycin A]
PRCO (percentage Disease Reduction from Control) LEPTNO 1 day Protectant [1]: 100
PRCO (percentage Disease Reduction from Control) ERYSGT 6 hour Protectant [2]: 0
PRCO (percentage Disease Reduction from Control) PUCCRT 1 day Protectant [3]: 100
